Test results: US12180221B2, “Compounds and uses thereof” (JANSSEN PHARMACEUTICA NV, priority 2018, dated 2024)

How the values were obtained:
human SCD1 = biological target: T1, human SCD1 (Homo sapiens, UniProt O00767); test: Yeast growth assay, strain expressing human SCD1 as the sole desaturase (reduced growth as surrogate for SCD inhibition); type: cell-based; conditions: growth (OD600) after 40 h at 30° C.
T1 construct: expressed in transfected cells; host or cells: yeast strain with the OLE1 gene deleted, carrying a plasmid (grown in SD-Ura)
T1 sequence (O00767 1-359): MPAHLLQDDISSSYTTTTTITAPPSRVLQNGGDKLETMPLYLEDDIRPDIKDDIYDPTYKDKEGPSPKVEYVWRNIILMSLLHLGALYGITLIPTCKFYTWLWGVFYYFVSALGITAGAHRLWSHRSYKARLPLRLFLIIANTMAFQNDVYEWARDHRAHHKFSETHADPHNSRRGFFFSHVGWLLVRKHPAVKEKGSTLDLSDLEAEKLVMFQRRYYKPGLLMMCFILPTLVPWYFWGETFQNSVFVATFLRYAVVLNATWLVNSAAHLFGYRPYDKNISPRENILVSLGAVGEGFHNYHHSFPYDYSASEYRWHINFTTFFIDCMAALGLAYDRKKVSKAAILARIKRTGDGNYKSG

human SCD5 = biological target: T2, human SCD5 (Homo sapiens, UniProt Q86SK9); test: Yeast growth assay, strain expressing human SCD5 as the sole desaturase (reduced growth as surrogate for SCD inhibition); type: cell-based; conditions: growth (OD600) after 40 h at 30° C.
T2 construct: expressed in transfected cells; host or cells: yeast strain with the OLE1 gene deleted, carrying a plasmid (grown in SD-Ura)
T2 sequence (Q86SK9 1-330): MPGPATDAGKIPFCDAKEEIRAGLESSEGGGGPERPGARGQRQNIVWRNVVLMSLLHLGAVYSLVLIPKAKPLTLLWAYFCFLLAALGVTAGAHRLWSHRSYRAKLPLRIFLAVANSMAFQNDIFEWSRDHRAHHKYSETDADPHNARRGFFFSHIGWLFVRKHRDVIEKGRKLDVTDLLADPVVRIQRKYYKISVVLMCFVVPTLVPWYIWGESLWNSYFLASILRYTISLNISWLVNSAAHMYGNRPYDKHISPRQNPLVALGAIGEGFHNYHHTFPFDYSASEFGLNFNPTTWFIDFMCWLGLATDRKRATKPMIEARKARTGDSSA

Row | Structure (SMILES) | IC50 (human SCD1) | IC50 (human SCD5)
1 | Cc1ccc(Cc2ccc(C(=O)Nc3ccc(=O)n(C)n3)nc2)cc1C [Compound 312] | 1.82 µM | 0.03 µM
2 | CN1N=C(C(=O)Nc2ncc(Cc3cccc(F)c3)s2)CCC1=O [Compound 221, N-(5-(3-fluorobenzyl)thiazol-2-yl)-1-methyl-6-oxo-1,4,5,6-tetrahydropyridazine-3-carboxamide] | > 45 µM | > 45 µM
3 | O=C(Nc1ccc(Cc2cccc(F)c2)cn1)c1cc[nH]c(=O)n1 [Compound 425] | > 45 µM | > 45 µM
4 | O=C(Nc1ccc(Cc2cccc(F)c2)cn1)c1cnc2[nH]c(=O)oc2c1 [Compound 463] | > 45 µM | > 45 µM
5 | Cn1cc(C(=O)Nc2ccc(COc3cccc(Cl)c3)cn2)ccc1=O [Compound 263] | – | 0.17 µM

Next, values leading:

Row | IC50 (human SCD1) | IC50 (human SCD5) | Structure (SMILES)
6 | 3.1 µM | 0.36 µM | Cn1cc(C(=O)Nc2ccc(Cc3ccc(F)c(F)c3)cn2)ncc1=O [Compound 673]
7 | > 45 µM | – | CN1N=C(c2nc3cc(Cc4cccc(Cl)c4)cnc3[nH]2)CCC1=O [Compound 255]
8 | > 45 µM | 17.7 µM | CC1(C)CN(C(=O)c2cccc(Cc3ccc(F)cc3)n2)CCO1 [Compound 339]
